Laboratory results reported in publication PMC10415136, “Reverse transcriptases prime DNA synthesis” (Nucleic Acids Research, 2023).

Legend:
[1] = biological target: T1, LlLtrA RT domain (Lactococcus cremoris, UniProt P0A3U0); assay: gel-based primase assay; assay type: biochemical; conditions: RNA template (oMZ27), gamma-phosphate FAM-labelled GTP, Mn2+
T1 construct: gene ltrA; RT domain aa 1-472, endonuclease domain removed; recombinant from E. coli; catalytic D308, D309
T1 sequence (P0A3U0 1-472): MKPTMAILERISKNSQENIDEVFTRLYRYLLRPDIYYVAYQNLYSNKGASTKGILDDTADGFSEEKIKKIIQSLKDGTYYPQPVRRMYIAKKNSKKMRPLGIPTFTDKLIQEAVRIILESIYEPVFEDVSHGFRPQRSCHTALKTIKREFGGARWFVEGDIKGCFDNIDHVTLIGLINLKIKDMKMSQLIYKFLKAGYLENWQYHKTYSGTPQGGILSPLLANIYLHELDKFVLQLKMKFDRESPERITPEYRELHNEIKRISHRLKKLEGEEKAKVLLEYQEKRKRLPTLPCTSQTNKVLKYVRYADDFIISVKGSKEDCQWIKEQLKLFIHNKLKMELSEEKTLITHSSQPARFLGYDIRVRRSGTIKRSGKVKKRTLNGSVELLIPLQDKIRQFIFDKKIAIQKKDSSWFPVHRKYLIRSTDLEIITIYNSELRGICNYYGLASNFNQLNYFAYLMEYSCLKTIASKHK

[2] = biological target: T2, ScTy3 RT (Saccharomyces cerevisiae, UniProt Q99315); assay: gel-based primase assay; assay type: biochemical; conditions: DNA or RNA template, gamma-phosphate FAM-labelled GTP, Mn2+
T2 construct: gene TY3B-G; RT domain aa 1-339 of the mature RT from Ty3 Gag-Pol polyprotein, C-terminal MBP fusion; recombinant from E. coli
T2 sequence (Q99315 536-874): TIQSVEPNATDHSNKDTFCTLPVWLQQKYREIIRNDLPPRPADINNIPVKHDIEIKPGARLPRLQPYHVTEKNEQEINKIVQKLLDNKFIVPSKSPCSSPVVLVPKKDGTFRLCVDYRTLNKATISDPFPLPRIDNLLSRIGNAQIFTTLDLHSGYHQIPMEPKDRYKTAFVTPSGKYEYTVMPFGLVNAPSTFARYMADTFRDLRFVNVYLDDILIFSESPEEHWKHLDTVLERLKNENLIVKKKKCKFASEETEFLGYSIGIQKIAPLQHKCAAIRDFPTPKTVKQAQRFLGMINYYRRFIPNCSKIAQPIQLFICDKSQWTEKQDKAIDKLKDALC

Nc1nc2c(ncn2[C@H]2C[C@H](O)[C@@H](COP(=O)(O)OP(=O)(O)OP(=O)(O)O)O2)c(=O)[nH]1 [dGTP]
gel-based primase assay [1]: LlLtrA RT is an RNA-dependent primase | gel-based primase assay [2]: ScTy3 RT is efficient DNA and RNA-dependent primase
